According to patent US5416070A, “Composition for macrophage activation” (ImmunoTherapeutics, Inc., priority 1990, dated 1995):

Assays:
Format in all cases: cell-based
[1] = system: human peripheral blood monocytes; test: Activation of monocytes in vitro measured by production of tumor necrosis factor (ELISA); details: for TNF (pg/ml) at given Concentration of Compound: 24 Hours
Protocol: (§1) Human peripheral blood monocytes were isolated by density gradient centrifugation as noted in Example 13. The cell number was adjusted to 5×10^5 cells per ml in RPM 1640 media containing 5% human AB negative serum. One ml containing 5×10^5 cells were placed in individual wells of a 24-well Plastek tissue culture plate. Various drugs in a volume of 0.5 ml were added at time zero. The cells were incubated at 37° C. in a 5% CO2 atmosphere. Aliquots (0.1 ml) of the supernatant were removed at 24 hours and frozen at -80° C. These samples were subsequently assayed for tumor necrosis factor (TNF) activity using a commercially available ELISA Assay from T-Cell Sciences (Cambridge, Mass.).
Human peripheral blood monocytes were isolated by density gradient centrifugation as described in Example 13. The cells were plated in 24-well microliter plates as described in Example 33. The compounds Were prepared in liposomes as described in Example 10, and assayed for TNF production, as described in Example 33. The results are set forth in Table 5, and show significant levels of TNF compared to controls.
as §1, with “of” for “of a”, “zero. The compounds were also formulated in liposomes as described in Example 10, and added in a volume of 0.5 ml to individual wells of a 24-well Plastek tissue culture plate.” for “zero.”, “-20°” for “-80°”, “TNF as described in Example 33 and Interleukin-1-beta (IL-1β)” for “tumor necrosis factor (TNF) activity”, “kit” for “Assay”, “Cistron (Pine Brook, N.J.).” for “T-Cell Sciences (Cambridge, Mass.).”

[2] = system: human peripheral blood monocytes; test: Activation of monocytes in vitro measured by production of Interleukin-1-beta (ELISA); details: 24 Hours
Protocol: as §1, with “of” for “of a”, “zero. The compounds were also formulated in liposomes as described in Example 10, and added in a volume of 0.5 ml to individual wells of a 24-well Plastek tissue culture plate.” for “zero.”, “-20°” for “-80°”, “TNF as described in Example 33 and Interleukin-1-beta (IL-1β)” for “tumor necrosis factor (TNF) activity”, “kit” for “Assay”, “Cistron (Pine Brook, N.J.).” for “T-Cell Sciences (Cambridge, Mass.).”

[3] = system: Human peripheral blood mononuclear cells; test: Activation of monocytes in vitro measured by in vitro tumor cell cytotoxicity
Protocol: Human peripheral blood mononuclear cells were isolated by density gradient centrifugation on 46% Percoll. 1×10^5 of the mononuclear cells were plated onto Falcon microliter plates and allowed to adhere for two hours. The non-adherent cells were removed and fresh media added. The cells were allowed to incubate for 24 hours after which various concentrations of the drug either alone or incorporated in liposomes was added. After 24 hours, the plates were washed and 1×10^4 I^125 labelled target cells were added. Following an additional 72 hours of coincubation, the plates were washed and the residual radioactivity determined. The specific cytotoxicity was calculated from the formula: [formula] The results of cytotoxicity assay of various compounds alone or incorporated in liposomes at various concentrations is given in Table 6.

[4] = Table 9, Experiment 2, 0.1 μg/ml
[5] = Table 9, Experiment 2, 1.0 μg/ml
[6] = Table 9, Experiment 2, 10.0 μg/ml
[7] = Table 8, Experiment 1, 0.01 μg/ml
[8] = Table 8, Experiment 1, 0.1 μg/ml
[9] = Table 8, Experiment 1, 1.0 μg/ml
[10] = Table 8, Experiment 1, 10.0 μg/ml
[11] = Table 7, Experiment 1, 0.01 μg/ml
[12] = Table 7, Experiment 1, 0.1 μg/ml
[13] = Table 7, Experiment 1, 1.0 μg/ml
[14] = Table 7, Experiment 1, 10.0 μg/ml
[15] = Experiment 3, free drug in saline 0.1 μg/ml, 24 hours
[16] = Experiment 3, free drug in saline 1.0 μg/ml, 24 hours
[17] = Experiment 3, free drug in saline 10.0 μg/ml, 24 hours
[18] = PC/PG liposomes (7:3), 0.1 μg/ml
[19] = PC/PG liposomes (7:3), 1.0 μg/ml
[20] = PC/PG liposomes (7:3), 10.0 μg/ml
[21] = no formulation given (drug alone), 0.1 μg/ml
[22] = no formulation given (drug alone), 1.0 μg/ml
[23] = no formulation given (drug alone), 10.0 μg/ml

SMILES | IL-1-beta (pg/ml) at given Concentration of Compound [2, 7] [pg/mL] | IL-1-beta (pg/ml) at given Concentration of Compound [2, 8] [pg/mL] | IL-1-beta (pg/ml) at given Concentration of Compound [2, 9] [pg/mL] | IL-1-beta (pg/ml) at given Concentration of Compound [2, 10] [pg/mL] | TNF (pg/ml) at given Concentration of Compound [1, 12] [pg/mL] | TNF (pg/ml) at given Concentration of Compound [1, 13] [pg/mL] | TNF (pg/ml) at given Concentration of Compound [1, 14] [pg/mL] | TNF Level [1, 15] [pg/mL] | TNF Level [1, 16] [pg/mL] | TNF Level [1, 17] [pg/mL] | other results
CCCCCCCCCCCCCCCC(=O)OCC(COC(=O)C(C)NC(=O)CCC(NC(=O)C(CO)NC(=O)C(C)OC1C(NC(C)=O)C(O)OC(CO)C1OC1OC(CO)C(O)C(O)C1NC(C)=O)C(N)=O)OC(=O)CCCCCCCCCCCCCCC [IIE, GlcNAcMurNAc-F-Ser-D-isoGln-F-Ala-DPG] |  |  |  |  |  |  |  |  |  |  | TNF (pg/ml) at given Concentration of Compound [1, 4]: 150 pg/mL; TNF (pg/ml) at given Concentration of Compound [1, 5]: 800 pg/mL; TNF (pg/ml) at given Concentration of Compound [1, 6]: 1500 pg/mL
CCCCCCCCCCCCCCCC(=O)OCC(COC(=O)C(C)NC(=O)CCC(NC(=O)C(C)NC(=O)C(C)OC1C(NC(C)=O)C(O)OC(CO)C1OC1OC(CO)C(O)C(O)C1NC(C)=O)C(N)=O)OC(=O)CCCCCCCCCCCCCCC [Compound IIC, GlcNAcMurNAc-D-Ala-D-isoGln-D-Ala-DPG] |  |  |  |  |  |  |  |  |  |  | TNF Level ([1]; Experiment 4, free drug in saline 0.1 μg/ml, 24 hours): 40 pg/mL; TNF Level ([1]; Experiment 4, free drug in saline 1.0 μg/ml, 24 hours): 110 pg/mL; TNF Level ([1]; Experiment 4, free drug in saline 10.0 μg/ml, 24 hours): 450 pg/mL
CCCCCCCCCCCCCCCC(=O)OCC(COC(=O)C(C)NC(=O)CCC(NC(=O)C(NC(=O)C(C)OC1C(NC(C)=O)C(O)OC(CO)C1OC1OC(CO)C(O)C(O)C1NC(C)=O)C(C)O)C(N)=O)OC(=O)CCCCCCCCCCCCCCC [IID, GlcNAcMurNAc-F-Thr-D-isoGln-F-Ala-DPG] | 70 | 14 | 170 | 690 | 320 | 1080 | 2150 |  |  |  | TNF (pg/ml) at given Concentration of Compound [1, 11]: 70 pg/mL
CCCCCCCCCCCCCCCC(=O)OCC(COC(=O)CCCCCCCCCCCCCCC)NC(=O)C(C)NC(=O)CCC(NC(=O)C(NC(=O)C(C)OC1C(NC(C)=O)C(O)OC(CO)C1OC1OC(CO)C(O)C(O)C1NC(C)=O)C(C)O)C(N)=O [ID, GlcNAcMurNAc-F-Thr-D-isoGln-F-Ala-NHDPG] | 10 | 16 | 8 | 90 | 0 | 250 | 1060 |  |  |  | 
CCCCCCCCCCCCCCCC(=O)OCC(COC(=O)C(C)NC(=O)CCC(NC(=O)C(C)NC(=O)C(C)OC1C(NC(C)=O)C(O)OC(CO)C1OC1OC(CO)C(O)C(O)C1NC(C)=O)C(N)=O)OC(=O)CCCCCCCCCCCCCCC [Compound IIB, 4-O-[2-acetamido-2-deoxy-β-D-glucopyranosyl]-2-acetamido-2-deoxy-3-O-[D-2-propanoyl-L-alanyl-D-isoglutaminyl-D-alanyl-1,2-dipalmitoyl-sn-glycerol]-D-glucopyranose] |  |  |  |  |  |  |  | 250 | 500 | 1600 | 
CC(=O)NC1C(OC2C(CO)OC(O)C(NC(C)=O)C2OC(C)C(=O)NC(C(=O)NC(CCC(=O)O)C(N)=O)C(C)O)OC(CO)C(O)C1O [GlcNAcMurNAc-L-Thr-D-isoGln] | 50 | 70 | 230 | 630 | 440 | 1050 | 1050 |  |  |  | TNF (pg/ml) at given Concentration of Compound [1, 11]: 200 pg/mL
CCCCCCCCCCCCCCCC(=O)OCC(COC(=O)C(NC(=O)CCC(NC(=O)C(C)NC(=O)C(C)OC1C(NC(C)=O)C(O)OC(CO)C1OC1OC(CO)C(O)C(O)C1NC(C)=O)C(N)=O)C(C)C)OC(=O)CCCCCCCCCCCCCCC [IIG, GlcNAcMurNAc-F-Ala-D-isoGln-F-Val-DpG] |  |  |  |  |  |  |  |  |  |  | TNF (pg/ml) at given Concentration of Compound [1, 4]: 1150 pg/mL; TNF (pg/ml) at given Concentration of Compound [1, 5]: 1500 pg/mL; TNF (pg/ml) at given Concentration of Compound [1, 6]: 1400 pg/mL
CCCCCCCCCCCCCCCC(=O)OCC(COC(=O)CCCCCCCCCCCCCCC)NC(=O)C(C)NC(=O)CCC(NC(=O)C(C)NC(=O)C(C)OC1C(NC(C)=O)C(O)OC(CO)C1OC1OC(CO)C(O)C(O)C1NC(C)=O)C(N)=O [Compound IA, 4-O-[2-acetamido-2-deoxy-β-D-glucopyranosyl]-2-acetamido-2-deoxy-3-O-[D-2-propanoyl-L-alanyl-D-isoglutaminyl-L-alanyl-2-(1,3-dipalmitoyloxy)propylamide]-D-glucopyranose] |  |  |  |  |  |  |  | 280 | 1000 | 1680 | Cytotoxicity [3, 18]: 7.0%; Cytotoxicity [3, 19]: 7.0%; Cytotoxicity [3, 20]: 6.0%; Cytotoxicity ([3]; PC/PS liposomes (7:3), 0.1 μg/ml): 8.0%; Cytotoxicity ([3]; PC/PS liposomes (7:3), 1.0 μg/ml): 5.0%; Cytotoxicity ([3]; PC/PS liposomes (7:3), 10.0 μg/ml): 19.0%; Cytotoxicity [3, 21]: 1.0%; Cytotoxicity [3, 22]: 4.0%; Cytotoxicity [3, 23]: 3.0%; TNF Level ([1]; Table 5, compound incorporated in liposomes, 0.1 μg/ml): 430 pg/mL; TNF Level ([1]; Table 5, compound incorporated in liposomes, 1.0 μg/ml): 800 pg/mL; TNF Level ([1]; Table 5, compound incorporated in liposomes, 10.0 μg/ml): 750 pg/mL
CCCCCCCCCCCCCCCC(=O)OCC(COC(=O)CCCCCCCCCCCCCCC)NC(=O)C(C)NC(=O)CCC(NC(=O)C(C)NC(=O)C(C)OC1C(NC(C)=O)C(O)OC(CO)C1OC1OC(CO)C(O)C(O)C1NC(C)=O)C(N)=O [Compound IC, GlcNAcMurNAc-D-Ala-D-isoGln-D-Ala-NHDPG] |  |  |  |  |  |  |  | 280 | 300 | 250 | Cytotoxicity [3, 18]: 10.0%; Cytotoxicity [3, 19]: 4.0%; Cytotoxicity [3, 20]: 12.0%; Cytotoxicity [3, 21]: 5.0%; Cytotoxicity [3, 22]: 16.0%; Cytotoxicity [3, 23]: 15.0%
CCCCCCCCCCCCCCCC(=O)OCC(COC(=O)CCCCCCCCCCCCCCC)NC(=O)C(C)NC(=O)CCC(NC(=O)C(C)NC(=O)C(C)OC1C(NC(C)=O)C(O)OC(CO)C1OC1OC(CO)C(O)C(O)C1NC(C)=O)C(N)=O [Compound IB, GlcNAcMurNAc-L-Ala-D-isoGln-D-Ala-NHDPG] |  |  |  |  |  |  |  | 180 | 350 | 1980 | 
